In patent publication US20240335429A1, “MOLECULAR GLUE AND SALL4 DEGRADER” (National University of Singapore, priority 2021, published 2024):

Experiments:
SALL4 (1-300aa) protein = target: T1, SALL4 (1-300aa) protein (Homo sapiens, UniProt Q9UJQ4); experiment: Thermal shift assay (TSA) with Sypro Orange; type: binding
T1 construct: SALL4 (1-300aa) cloned into this vector was expressed with the N-terminal 6-His tags; His6 (pET His6 TEV LIC vector 2B-T, TEV site) (N); made in house; host or cells: E. coli BL21 (DE3)/pLysS
T1 sequence (Q9UJQ4 1-300): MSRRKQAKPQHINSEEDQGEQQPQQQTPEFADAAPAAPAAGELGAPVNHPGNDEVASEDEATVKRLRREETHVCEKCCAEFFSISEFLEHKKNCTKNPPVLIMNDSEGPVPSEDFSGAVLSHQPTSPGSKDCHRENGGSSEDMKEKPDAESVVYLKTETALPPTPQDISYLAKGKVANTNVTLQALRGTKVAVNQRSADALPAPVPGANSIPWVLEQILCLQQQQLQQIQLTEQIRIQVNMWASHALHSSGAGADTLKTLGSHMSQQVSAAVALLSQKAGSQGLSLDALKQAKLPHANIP
Method: A library of 50,000 small molecules from the Novartis Biomedical Research Institute (NIBR) was screened at 50 μM and 100 μM against 13.8 μM of purified SALL4 (1-300aa) protein in the buffer containing potassium phosphate (100 mM) and NaCl (100 mM) at pH 7. Screening assay was performed in 384-well thin wall white PCR plates using LightCyler® 480 Real-Time PCR System (Roche Applied Sciences). A 7-min run was started at 30° C. and ended at 90° C. Sypro Orange was used as the sensitive fluorescent dye for monitoring thermal protein denaturation. Hits were defined as compounds that can induce a change in protein melting points 3 times higher than the standard deviations of the apo-protein melting point from DMSO control.
To experimentally assess the stoichiometry of the binding between SALL4 (1-300aa) and QE-18-WG07, the inventors titrated 13.8 μM of purified recombinant SALL4 (1-300aa) protein with 12 increasing concentrations of QE-18-WG07 and evaluated the dose-response correlation in the ΔTm shift by following the protocol for TSA in Example 7.

cleaved PARP = experiment: Immunoblot of cleaved PARP (apoptotic marker) in SNU-398 cells; type: cell-based, human; details: SNU-398 HCC cells, 24 h
Method: (§1) RIPA buffer containing freshly added protease inhibitors (2 mM PMSF) and protease inhibitor cocktail was used for cell lysis. The lysed cells were incubated for 10 min on ice and subsequently centrifuged at 4° C. for 10 min at 14,000 rpm. The protein concentrations of cell lysates were assessed using Bradford Assay as per manufacturer's instructions. The samples were denatured using 4× Sample buffer at 95° C. for 5 min. The samples were size resolved using polyacrylamide gel (8%) and Mini-PROTEAN Tetra Cell module. The size-resolved proteins were transferred onto PVDF via electroblotting using Mini Trans-Blot® module. The membrane was blocked using 5% BSA in TBST. The membrane was incubated with appropriate primary antibody (overnight) and secondary antibody (1 h). Immobilon Crescendo Western HRP substrate was used for signal development and images were acquired using darkroom development techniques.

RBBP4 = experiment: Immunoblot of RBBP4 in SNU-398 cells; type: cell-based, human; details: 16 μM, 24 h
Method: as §1
26S proteasome complex and neddylation was inhibited by cotreating MG132 at 1 and 3 μM and MLN4924 at 10 and 15 μM for 18 h, 20 h, 24 h or 48 h with desired concentrations of QE-18-WG07 in SNU-398, H661 and SNU-182 cells. After 18 h or 24 h of treatment, cells were then lysed and subjected to further protein extraction and immunoblotting by following the protocol in Example 4. For caspase glo assay, 20 h of cotreatment was performed by following the protocol in Example 5. […]

SNU-398 xenografts = experiment: HCC mouse xenograft, anti-tumor efficacy; type: in vivo; details: for tumor shrinkage: 15 days
Method: (§2) Animals were maintained, and all animal work were performed following the protocols approved by the Institutional Animal Care and Use Committee. The SNU-398 cell line was cultured as described above in ‘Cell Culture’. To establish the SNU-398 xenografts, NOD.Cg−Prkdc^sc^i^dIl2rg^tm^1^Wjl/Sz (NSG) female mice (6-8 weeks) were anesthetized using 2% isoflurane USP, and 0.5×10^6 SNU-398 cells in 200 μL of 1:1 RPMI:Matrigel were subcutaneously injected to the mouse flanks. When tumors were palpable, mice were randomized to receive either QE treatment or vehicle containing 5% DMSO, 12.5% Ethanol, and 12.5% Cremophor EL in 70% 1× PBS. Freshly prepared vehicle or QE-18-WG07 was administered by intraperitoneal (IP) injection, once daily (qd) at 10 mg/kg in the pilot study and 5, 15, and 45 mg/kg for dose-expansion studies. Before each drug injection, mouse weight and tumor volume were monitored. Mice were euthanized once tumors reached more than 1.5 cm in diameter. The tumors were harvested, imaged and snap-frozen for storage at −80° C. until later use.

[1] = HCC mouse xenograft, tolerability (body, spleen, liver weight); type: in vivo
Method: as §2

[2] = QE-18-WG07 0.0061 μM, 30 min incubation
[3] = QE-18-WG07 0.0122 μM, 30 min incubation
[4] = QE-18-WG07 0.0488 μM, 30 min incubation
[5] = QE-18-WG07 0.0977 μM, 30 min incubation
[6] = QE-18-WG07 0.1953 μM, 30 min incubation
[7] = QE-18-WG07 0.7813 μM, 30 min incubation
[8] = QE-18-WG07 1.5625 μM, 30 min incubation
[9] = QE-18-WG07 3.1250 μM, 30 min incubation
[10] = QE-18-WG07 6.2500 μM, 30 min incubation
[11] = QE-18-WG07 12.5000 μM, 30 min incubation
[12] = QE-18-WG07 25.0000 μM, 30 min incubation
[13] = QE-18-WG07 50.0000 μM, 30 min incubation

COc1ccccc1NC(=O)Nc1ccc([N+](=O)[O-])cc1O [QE-18-WG07]
concentration at which ΔTm saturation occurs (SALL4 (1-300aa) protein; 13.8 μM SALL4 (1-300aa), 30 min incubation): ≥ 12.5 µM
SALL4 (1-300) Melting Temperature Shift (° C.) Rep 1 (SALL4 (1-300aa) protein; [2]): −0.357 °C
SALL4 (1-300) Melting Temperature Shift (° C.) Rep 2 (SALL4 (1-300aa) protein; [2]): −0.357 °C
SALL4 (1-300) Melting Temperature Shift (° C.) Rep 1 (SALL4 (1-300aa) protein; [3]): −0.267 °C
SALL4 (1-300) Melting Temperature Shift (° C.) Rep 2 (SALL4 (1-300aa) protein; [3]): −0.267 °C
SALL4 (1-300) Melting Temperature Shift (° C.) Rep 1 (SALL4 (1-300aa) protein; [4]): −0.077 °C
SALL4 (1-300) Melting Temperature Shift (° C.) Rep 2 (SALL4 (1-300aa) protein; [4]): −0.357 °C
SALL4 (1-300) Melting Temperature Shift (° C.) Rep 1 (SALL4 (1-300aa) protein; [5]): −0.357 °C
SALL4 (1-300) Melting Temperature Shift (° C.) Rep 2 (SALL4 (1-300aa) protein; [5]): −0.357 °C
SALL4 (1-300) Melting Temperature Shift (° C.) Rep 1 (SALL4 (1-300aa) protein; [6]): −0.267 °C
SALL4 (1-300) Melting Temperature Shift (° C.) Rep 2 (SALL4 (1-300aa) protein; [6]): −0.267 °C
SALL4 (1-300) Melting Temperature Shift (° C.) Rep 1 (SALL4 (1-300aa) protein; [7]): −0.167 °C
SALL4 (1-300) Melting Temperature Shift (° C.) Rep 2 (SALL4 (1-300aa) protein; [7]): −0.167 °C
SALL4 (1-300) Melting Temperature Shift (° C.) Rep 1 (SALL4 (1-300aa) protein; [8]): 0.503 °C
SALL4 (1-300) Melting Temperature Shift (° C.) Rep 2 (SALL4 (1-300aa) protein; [8]): 0.503 °C
SALL4 (1-300) Melting Temperature Shift (° C.) Rep 1 (SALL4 (1-300aa) protein; [9]): 0.413 °C
SALL4 (1-300) Melting Temperature Shift (° C.) Rep 2 (SALL4 (1-300aa) protein; [9]): 0.793 °C
SALL4 (1-300) Melting Temperature Shift (° C.) Rep 1 (SALL4 (1-300aa) protein; [10]): 0.703 °C
SALL4 (1-300) Melting Temperature Shift (° C.) Rep 2 (SALL4 (1-300aa) protein; [10]): 0.703 °C
SALL4 (1-300) Melting Temperature Shift (° C.) Rep 1 (SALL4 (1-300aa) protein; [11]): 1.373 °C
SALL4 (1-300) Melting Temperature Shift (° C.) Rep 2 (SALL4 (1-300aa) protein; [11]): 1.083 °C
SALL4 (1-300) Melting Temperature Shift (° C.) Rep 1 (SALL4 (1-300aa) protein; [12]): 1.273 °C
SALL4 (1-300) Melting Temperature Shift (° C.) Rep 2 (SALL4 (1-300aa) protein; [12]): 1.273 °C
SALL4 (1-300) Melting Temperature Shift (° C.) Rep 1 (SALL4 (1-300aa) protein; [13]): 1.273 °C
SALL4 (1-300) Melting Temperature Shift (° C.) Rep 2 (SALL4 (1-300aa) protein; [13]): 0.983 °C
ΔTm at 100 µM (SALL4 (1-300aa) protein; SALL4(1-300) melting temperature shift, mean ± SD (n = 2), [compound] = 100 μM, 30 min): 1.15 ± 0.01 °C
Thermal Shift Assay Type (SALL4 (1-300aa) protein; [compound] = 100 μM, 30 min): Positive shifter
cleavage of PARP (apoptosis induction) (cleaved PARP): prominent cleavage of PARP
effect on the level of RBBP4 (RBBP4): no observable effect
tumor shrinkage (SNU-398 xenografts; 5 mg/kg IP daily): 40%
reduction of tumor sizes vs vehicle control (SNU-398 xenografts; 10 mg/kg IP daily, 10 days): 64%
tumor shrinkage (SNU-398 xenografts; 15 mg/kg IP daily): 60%
tumor shrinkage (SNU-398 xenografts; 45 mg/kg IP daily): 70%
tolerability (animal weight preservation, normal spleen weight) ([1]; 10 mg/kg daily, 10 days): well tolerated
weight loss in mice compared to vehicle ([1]; 10 mg/kg q.d., 10 days): did not induce significant weight loss
tolerability (negligible weight loss, normal spleen and liver weight) ([1]; 45 mg/kg daily, 2 weeks): well tolerated
weight loss in mice ([1]; 5, 15 and 45 mg/kg q.d., 15 days): did not induce significant weight loss
